# Laboratory results published in patent publication US20240325312A1, “Composition comprising cannabidiol and hydroxychloroquine in a fixed dose combination capsule” (priority 2021, published 2024).
# Legend:
# [1] = system: human peripheral blood mononuclear cells (PBMCs); assay: LPS-stimulated cytokine release from human PBMCs, checkerboard, Luminex; assay type: cell-based
# Method: The anti-inflammatory activity the combination of CBD and hydroxychloroquine was assessed by determining cytokine release from human peripheral blood mononuclear cells (PBMCs) stimulated with bacterial lipopolysaccharide (LPS) using a Luminex based assay. A 96-well microtitre plate-based checkerboard assay with seven concentrations (including the no drug control) of CBD and hydroxychloroquine were assessed in combination was used to determine the drug-drug interaction. Briefly, frozen PMBCs from two independent donors were thawed, diluted in culture medium, seeded into 96-well microtitre plates and incubated at 37° C., 5% CO2 for 1 hour prior to the addition of test compounds. After the addition of the test compounds the cells were returned to the incubator for 1 hour, after which LPS was added to the wells. Plates were incubated at 37° C., 5% CO2 for 24 hours. After 24 hours, cell culture supernatants were removed and analysed for cytokine levels using Luminex methodology according to manufacturers' instructions. All values had the vehicle background subtracted prior to further analysis. Three plates were set up in parallel using the PBMCs from the same donor. Inhibition of cytokine release was determined relative to the no treatment control (i.e., that was stimulated with LPS) and averaged across the three replicates. A cytotoxicity assay using AlmarBlue with the identical plate set up was performed in parallel.
# (§1) Drug synergy was determined using the Bliss Independence method where the predicted effect of the drug combination is calculated using the equation: […]
# C57BL/6 mice = assay: Lipopolysaccharide (LPS)-induced sepsis, serum cytokines; assay type: in vivo
# Method: Male C57BL/6 mice weighing 10-20 g were used. Vehicle and active agents (i.e., CBD and hydroxychloroquine) alone or in combination were administered intraperitoneally (IP) or orally at 1 hour before LPS (100 μg/100 μL/mouse) injected intravenously (IV). At 2 hours after LPS injection, blood was collected from all mice by cardiac puncture, sera processed and assayed for biomarkers using either the Th17-plex for IL-1β, IL-2, IL-10, IL-12 (p70), IFN-γ and TNF-α by Luminex, plus IL-6 and D-dimer by ELISA, or the 23-plex for IL-1α, IL-1β, IL-2, IL-3, IL-4, IL-5, IL-6, IL-9, IL-10, IL-12(p40), IL-12(p70), IL-13, IL-17A, Eotaxin, G-CSF, GM-CSF, IFN-γ, KC, MCP-1(MCAF), MIP-1α, […], RANTES, and TNF-α by Luminex, plus IL-6 by ELISA. ANOVA followed by Dunnett's test was applied for comparison between vehicle and treatment groups. p<0.05 is considered significant.
# For synergy analysis, data were baseline subtracted using the cytokine levels of sham treated mice (i.e., no LPS injection), before normalizing the values for each cytokine relative to maximum values across the groups. The normalized values were used to calculate the relative inhibition where a value of 1 represents complete inhibition and a value of 0 represents no inhibition. Synergy was calculated using the statistical methods described elsewhere herein.
# as §1
# Lewis rats [2] = assay: Collagen-induced arthritis; assay type: in vivo; details: Day 30
# BALB/c mice = assay: TNBS-induced colitis; assay type: in vivo; details: H&E
# Source text: Male BALB/c were used as an in vivo model of colitis, induced by intracolonic administration of 2,4,6-trinitrobenzene sulfonic acid (TNBS) in 50% ethanol, as previously described by Antoniou et al. (2016, Annals of Medicine and Surgery, 11: 9-15). Briefly, the ethanol disrupts the intestinal barrier, permitting TNBS to interact with colon proteins. Interaction of TNBS with high-molecular weight proteins renders them immunogenic, leading to Th1 mediated inflammation, which is causative of symptoms include inconsistent stool formation and blood in the faeces. […]
# Other endpoint measures of stool consistency score (i.e., 0—normal stools, 1, soft but still formed stools, 2—very soft stools, 3—diarrhoea), faecal occult blood score (i.e., 0—negative hemoccult, 1—positive hemoccult, 2—blood traces in stool visible, 3—rectal bleeding), colon weight, colon macroscopic damage score (a composite of adhesions, strictures, ulcers/inflammations and wall thickness) and myeloperoxidase levels in the colon tissue were also assessed. The data from each of these endpoints was baseline subtracted using the equivalent measures from sham treated mice (i.e., no TNBS) and reduction in any measure calculated as a relative reduction. Synergy was calculated using the statistical methods described elsewhere herein.
# Lewis rats [3] = assay: Collagen-induced arthritis; assay type: in vivo; parameters: key to Relative reduction in pannus score / Relative reduction in total histology score / Reduction in pannus score / Reduction in total histology score / Reduction in IL-1B / Reduction in IL-6 / Reduction in clinical score: fractional reduction vs vehicle control, sham baseline subtracted
# Method: Female Lewis rats were challenged with porcine type-II collagen with Freund's adjuvant on Day 1 (0.2 mg/0.2 mL/rat) by subcutaneous injection at the base of the tail to induce arthritis. A booster injection at 0.1 mg/0.1 mL/rat) was administered on Day 7. On Day 16, rats were allocated into groups of six based on hind paw volume, with animals allocated into groups to provide a similar distribution of hind paw volumes.
# Vehicle and active agents (i.e., CBD and hydroxychloroquine) alone or in combination were administered intraperitoneally (IP) once a day starting from Day 17 to Day 30, i.e., for a total of 14 consecutive days.
# Disease was assessed by measuring hind paw volume with plethysmometer and using a qualitative severity score system as outlined in Table 16 on Day 1, 7, 10, 14, 16, 18, 20, 22, 24, 26, 28 and 30.
# Post-termination on Day 30, blood was collected from all rats and analysed for levels of the inflammatory cytokines […], IL-6 and TNF-α by ELISA. Both hind paws were harvested, weighed and formalin-fixed for histopathology. Tissue was assessed to evaluate cartilage and bone destruction by pannus formation and mononuclear cell infiltration in synovial tissues according to the scoring matrices set out in Tables 17 and 18. A total histology score, being the sum of the pannus formation and mononuclear cell infiltration score, was also calculated.
# For synergy analysis, data were baseline subtracted using sham treated […] (i.e., no collagen injection), before normalizing the values relative to vehicle control. Synergy was calculated using the statistical methods described elsewhere herein.
compound,measurement,setting,value
"C=C(C)[C@@H]1CCC(C)=C[C@H]1c1c(O)cc(CCCCC)cc1O [CBD, cannabidiol]","FIE, IL-1α release","[1]; Donor 1, CBD 5.00 μg/mL",0.40
same,"FIE, IL-1β release","[1]; Donor 1, CBD 5.00 μg/mL",0.38
same,"FIE, IL-6 release","[1]; Donor 1, CBD 5.00 μg/mL",0.08
same,"FIE, MIP-1α release","[1]; Donor 1, CBD 5.00 μg/mL",0.12
same,"FIE, TNF-α release","[1]; Donor 1, CBD 5.00 μg/mL",0.05
same,"FIE, IL-1α release","[1]; Donor 2, CBD 5.00 μg/mL",0.28
same,"FIE, IL-1β release","[1]; Donor 2, CBD 5.00 μg/mL",0.13
same,"FIE, IL-6 release","[1]; Donor 2, CBD 5.00 μg/mL",0.09
same,"FIE, MIP-1α release","[1]; Donor 2, CBD 5.00 μg/mL",0.00
same,"FIE, TNF-α release","[1]; Donor 2, CBD 5.00 μg/mL",0.07
same,Relative inhibition of IFN-γ release,C57BL/6 mice; CBD 10 mg/kg,0.00
same,Relative inhibition of IL-1β release,C57BL/6 mice; CBD 10 mg/kg,0.34
same,Relative inhibition of IL-6 release,C57BL/6 mice; CBD 10 mg/kg,0.14
same,Relative inhibition of IL-12(p70) release,C57BL/6 mice; CBD 10 mg/kg,0.00
same,Relative inhibition of TNF-α release,C57BL/6 mice; CBD 10 mg/kg,0.00
same,Relative inhibition of IL-6 release,C57BL/6 mice; CBD 25 mg/kg,0.03
same,Relative reduction in serum IL-1β level,Lewis rats [2]; CBD 1 mg/kg,0.31
same,Colon tissue histology finding (FIG. 4),BALB/c mice; CBD (1 mg/kg),regions of inflammatory cell infiltration in submucosal edema
same,Relative reduction in pannus score,"Lewis rats [3]; Day 30, CBD 1 mg/kg",0.07
same,Relative reduction in serum IL-6 level,"Lewis rats [3]; Day 30, CBD 1 mg/kg",0.50
same,Relative reduction in total histology score,"Lewis rats [3]; Day 30, CBD 1 mg/kg",0.11
"CCN(CCO)CCCC(C)Nc1ccnc2cc(Cl)ccc12 (stereo not drawn) [HCQ, 2-[[4-[(7-chloro-4-quinolinyl)amino]pentyl]-thylamino]ethanol]","FIE, IL-1α release","[1]; Donor 1, HCQ 0.63 μg/mL",0.03
same,"FIE, IL-1β release","[1]; Donor 1, HCQ 0.63 μg/mL",0.08
same,"FIE, IL-6 release","[1]; Donor 1, HCQ 0.63 μg/mL",0.12
same,"FIE, TNF-α release","[1]; Donor 1, HCQ 0.63 μg/mL",0.00
same,"FIE, IL-1α release","[1]; Donor 1, HCQ 1.25 μg/mL",0.01
same,"FIE, IL-1β release","[1]; Donor 1, HCQ 1.25 μg/mL",0.07
same,"FIE, IL-6 release","[1]; Donor 1, HCQ 1.25 μg/mL",0.00
same,"FIE, TNF-α release","[1]; Donor 1, HCQ 1.25 μg/mL",0.08
same,"FIE, IL-1α release","[1]; Donor 1, HCQ 2.50 μg/mL",0.12
same,"FIE, IL-1β release","[1]; Donor 1, HCQ 2.50 μg/mL",0.08
same,"FIE, IL-6 release","[1]; Donor 1, HCQ 2.50 μg/mL",0.10
same,"FIE, MIP-1α release","[1]; Donor 1, HCQ 2.50 μg/mL",0.00
same,"FIE, TNF-α release","[1]; Donor 1, HCQ 2.50 μg/mL",0.05
same,"FIE, IL-1α release","[1]; Donor 1, HCQ 5.00 μg/mL",0.24
same,"FIE, IL-1β release","[1]; Donor 1, HCQ 5.00 μg/mL",0.17
same,"FIE, IL-6 release","[1]; Donor 1, HCQ 5.00 μg/mL",0.08
same,"FIE, TNF-α release","[1]; Donor 1, HCQ 5.00 μg/mL",0.02
same,"FIE, IL-1α release","[1]; Donor 1, HCQ 10.00 μg/mL",0.50
same,"FIE, IL-1β release","[1]; Donor 1, HCQ 10.00 μg/mL",0.68
same,"FIE, IL-6 release","[1]; Donor 1, HCQ 10.00 μg/mL",0.00
same,"FIE, TNF-α release","[1]; Donor 1, HCQ 10.00 μg/mL",0.04
same,"FIE, IL-1α release","[1]; Donor 1, HCQ 20.00 μg/mL",0.54
same,"FIE, IL-1β release","[1]; Donor 1, HCQ 20.00 μg/mL",0.81
same,"FIE, IL-6 release","[1]; Donor 1, HCQ 20.00 μg/mL",0.12
same,"FIE, MIP-1α release","[1]; Donor 1, HCQ 20.00 μg/mL",0.00
same,"FIE, TNF-α release","[1]; Donor 1, HCQ 20.00 μg/mL",0.30
same,"FIE, IL-1α release","[1]; Donor 2, HCQ 0.63 μg/mL",0.07
same,"FIE, IL-1β release","[1]; Donor 2, HCQ 0.63 μg/mL",0.06
same,"FIE, IL-1α release","[1]; Donor 2, HCQ 1.25 μg/mL",0.11
same,"FIE, IL-1α release","[1]; Donor 2, HCQ 2.50 μg/mL",0.19
same,"FIE, IL-1β release","[1]; Donor 2, HCQ 2.50 μg/mL",0.07
same,"FIE, IL-1α release","[1]; Donor 2, HCQ 5.00 μg/mL",0.49
same,"FIE, TNF-α release","[1]; Donor 2, HCQ 5.00 μg/mL",0.02
same,"FIE, IL-1α release","[1]; Donor 2, HCQ 10.00 μg/mL",0.68
same,"FIE, IL-6 release","[1]; Donor 2, HCQ 10.00 μg/mL",0.11
same,"FIE, MIP-1α release","[1]; Donor 2, HCQ 10.00 μg/mL",0.00
same,"FIE, TNF-α release","[1]; Donor 2, HCQ 10.00 μg/mL",0.18
same,"FIE, IL-1α release","[1]; Donor 2, HCQ 20.00 μg/mL",0.63
same,"FIE, IL-6 release","[1]; Donor 2, HCQ 20.00 μg/mL",0.47
same,"FIE, MIP-1α release","[1]; Donor 2, HCQ 20.00 μg/mL",0.00
same,Relative reduction in serum IL-1β level,Lewis rats [2]; HCQ 2.5 mg/kg,0.37
same,Colon tissue histology finding (FIG. 4),BALB/c mice; hydroxychloroquine (2.5 mg/kg),"regions of mild abnormality, cyctic dilation and aberrant crypts"
same,Reduction in clinical score,"Lewis rats [3]; Day 24, HCQ 25 mg/kg",0.21
same,Reduction in paw volume,"Lewis rats [3]; Day 24, HCQ 25 mg/kg",0.10
same,Relative reduction in pannus score,"Lewis rats [3]; Day 30, HCQ 2.5 mg/kg",0.07
same,Relative reduction in serum IL-6 level,"Lewis rats [3]; Day 30, HCQ 2.5 mg/kg",0.51
same,Relative reduction in total histology score,"Lewis rats [3]; Day 30, HCQ 2.5 mg/kg",0.15
same,Reduction in clinical score,"Lewis rats [3]; Day 30, HCQ 25 mg/kg",0.26
same,Reduction in paw volume,"Lewis rats [3]; Day 30, HCQ 25 mg/kg",0.20
same,Reduction in mononuclear cell infiltration,Lewis rats [3]; HCQ 25 mg/kg,0.24
same,Reduction in pannus score,Lewis rats [3]; HCQ 25 mg/kg,0.28
same,Reduction in total histology score,Lewis rats [3]; HCQ 25 mg/kg,0.26
same,Reduction in IL-1B,"Lewis rats [3]; serum, HCQ 25 mg/kg",0.25
same,Reduction in IL-6,"Lewis rats [3]; serum, HCQ 25 mg/kg",0.36
